Positions count from the first letter of the chain named.

These results are taken from article PMC9911596 (Nature Communications, 2023).

Assay [1] has as its target T1, Vtc1/Vtc3/Vtc4 complex (VTC complex) (Saccharomyces cerevisiae, UniProt P47075+Q02725).
T1 construct: full-length subunits co-expressed in Expi293F; Vtc1 C-terminal HA, Vtc3 N-terminal 3xFlag, Vtc4 C-terminal 2xStrep; detergent-purified; 3:1:1 pentamer; with Vacuolar transporter chaperone complex subunit 1
T1 sequence (P47075 1-721): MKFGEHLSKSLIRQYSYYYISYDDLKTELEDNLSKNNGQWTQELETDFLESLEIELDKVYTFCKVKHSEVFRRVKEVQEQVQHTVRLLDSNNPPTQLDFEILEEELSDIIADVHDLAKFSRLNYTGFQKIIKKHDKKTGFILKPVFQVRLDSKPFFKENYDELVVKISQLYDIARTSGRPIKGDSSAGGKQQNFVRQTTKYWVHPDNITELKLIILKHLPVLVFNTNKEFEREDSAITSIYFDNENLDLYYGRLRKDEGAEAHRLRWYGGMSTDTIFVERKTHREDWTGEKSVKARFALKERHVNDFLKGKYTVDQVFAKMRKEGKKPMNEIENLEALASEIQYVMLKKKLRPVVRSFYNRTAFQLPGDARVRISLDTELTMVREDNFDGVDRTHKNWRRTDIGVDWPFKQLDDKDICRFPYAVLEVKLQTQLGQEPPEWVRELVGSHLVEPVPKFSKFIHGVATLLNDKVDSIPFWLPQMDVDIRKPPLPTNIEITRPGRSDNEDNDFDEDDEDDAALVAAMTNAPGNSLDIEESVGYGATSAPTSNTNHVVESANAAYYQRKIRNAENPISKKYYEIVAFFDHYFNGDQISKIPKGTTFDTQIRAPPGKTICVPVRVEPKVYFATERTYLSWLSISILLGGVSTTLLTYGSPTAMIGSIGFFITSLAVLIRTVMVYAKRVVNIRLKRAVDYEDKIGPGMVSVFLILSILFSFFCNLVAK
T1 sequence (Q02725 1-835): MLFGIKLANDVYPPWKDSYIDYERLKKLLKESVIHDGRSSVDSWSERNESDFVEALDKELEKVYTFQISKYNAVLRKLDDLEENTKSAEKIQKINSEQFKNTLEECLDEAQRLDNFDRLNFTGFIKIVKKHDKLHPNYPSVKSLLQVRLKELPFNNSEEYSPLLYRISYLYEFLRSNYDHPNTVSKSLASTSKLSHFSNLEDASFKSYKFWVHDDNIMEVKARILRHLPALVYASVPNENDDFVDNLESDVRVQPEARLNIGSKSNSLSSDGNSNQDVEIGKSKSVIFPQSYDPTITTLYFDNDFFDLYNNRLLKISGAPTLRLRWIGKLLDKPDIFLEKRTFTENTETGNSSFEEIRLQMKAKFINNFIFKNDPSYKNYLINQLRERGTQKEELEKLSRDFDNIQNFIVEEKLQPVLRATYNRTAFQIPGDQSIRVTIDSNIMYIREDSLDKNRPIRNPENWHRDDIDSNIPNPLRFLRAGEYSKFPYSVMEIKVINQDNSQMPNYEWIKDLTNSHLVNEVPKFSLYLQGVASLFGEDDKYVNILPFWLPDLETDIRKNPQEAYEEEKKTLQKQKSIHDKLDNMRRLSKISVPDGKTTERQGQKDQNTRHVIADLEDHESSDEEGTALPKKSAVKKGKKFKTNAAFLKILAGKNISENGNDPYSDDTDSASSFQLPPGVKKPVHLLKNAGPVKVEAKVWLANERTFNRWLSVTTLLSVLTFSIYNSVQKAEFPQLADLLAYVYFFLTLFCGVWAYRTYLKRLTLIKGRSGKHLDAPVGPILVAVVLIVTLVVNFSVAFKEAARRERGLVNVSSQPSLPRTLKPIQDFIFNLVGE
T1 sequence (P40046 2-129 partner): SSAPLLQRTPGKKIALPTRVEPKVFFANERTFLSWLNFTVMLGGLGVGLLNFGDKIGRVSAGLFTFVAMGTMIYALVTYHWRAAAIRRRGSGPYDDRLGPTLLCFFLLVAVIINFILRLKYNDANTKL
Nature of the assay: polyP synthesis, TBE-PAGE and DAPI; smFRET. The settings on record: activator; 15 mM ATP, 10 mM MgCl2, 1 mM MnCl2, 0.5 mM pyrophosphate, ATP regeneration, 27 °C, 4 h; up to 10 mM InsP6; SPX domain of Vtc4 as sensor. The format is biochemical.

In assay [2] the target is T2, Vtc1/Vtc3/Vtc4 complex (VTC complex) (Saccharomyces cerevisiae, UniProt P47075+Q02725, P47075:Y22F/P47075:K26A/P47075:K133A).
T2 construct: full-length subunits co-expressed in Expi293F; Vtc1 C-terminal HA, Vtc3 N-terminal 3xFlag, Vtc4 C-terminal 2xStrep; detergent-purified; 3:1:1 pentamer; with Vacuolar transporter chaperone complex subunit 1
T2 sequence (P47075 1-721 Y22F/K26A/K133A): T1 sequence (P47075 1-721) with Y22F, K26A, K133A
T2 sequence (Q02725 1-835): T1 sequence (Q02725 1-835)
T2 sequence (P40046 2-129 partner): T1 sequence (P40046 2-129 partner)
Nature of the assay: polyP synthesis, TBE-PAGE. It counts as biochemical. The settings on record: activator; 15 mM ATP, 10 mM MgCl2, 1 mM MnCl2, 0.5 mM pyrophosphate, 27 °C, 4 h; SPX PBC mutant.

As to `O=P(O)(O)O[C@H]1[C@H](OP(=O)(O)O)[C@@H](OP(=O)(O)O)[C@H](OP(=O)(O)O)[C@@H](OP(=O)(O)O)[C@H]1OP(=O)(O)O` [InsP6], the “polyP synthesis, TBE-PAGE and DAPI; smFRET” value in assay [1] was “harbors polyP polymerase activity and that synthesizes polyP in an InsP6 dose-dependent manner”. Moreover, in assay [2], the “polyP synthesis, TBE-PAGE” value is recorded as “both reduced InsP6-stimulated polyP synthesis”.
